# Measurements: US20080262068A1, “Method of Tonic Treatment With Oxyphenbutazone Derivatives” (A-Viral ASA, priority 2004, published 2008)
# Read-outs that look alike come from different tables or passages of the source.
# How the values were obtained:
# [1] = test system: monokine production by monocytes; assay: Effect on other monokines produced by stimulated monocytes; format: cell-based, human
# Protocol: (§1) PBMC (peripheral blood mononuclear cells) were isolated from freshly drawn blood of a healthy donor and separated over a Percoll gradient (d=1.078, Pharmacia Fine Chemicals AB, Uppsala, Sweden). These isolated PBMC were cultured in 200 μl IMDM (2×10^5 cells/ml) at 37° C. in the presence of 5% CO2 in flat bottom plates (Nunc, Roskilde, Denmark). A combination of 1 μg/ml anti-CD3 and anti-CD28 (CLB.T3/4.E res. CLB.CD28/1, CLB, Amsterdam, The Netherlands) was used for T lymphocyte stimulation. For monocyte stimulation 100 pg/ml lipo-oligosaccharide (LOS, kind gift of Dr. J. Poolman, RIVM, Bilthoven, The Netherlands) was used.
# (§2) Cytokine production of T lymphocytes was measured 3 days after anti CD3/anti CD28 stimulation. 1 day after LOS stimulation of the monocytes, cytokine production was measured. At the indicated times, supernatant was harvested and stored at −20° C. until used. IL-1b, IL-6, IL-8, IL-10, IL-12, IL-13, TNFa and IFNg were detected with ELISA kits (PeliKine-compact, CLB, Amsterdam, The Netherlands) according to the protocol. Summarized briefly, mAbs were coated on flat bottom microtitre plates (Nunc, Maxisorb) overnight in 100 μl 0.1 M sodiumbicarbonate at pH 9.6. […] The plates were measured in an ELISA-reader at 450 nm, using 540 nm for background measurements. GM-CSF was measured using a protocol similar to that used for the other cytokines. […]
# [2] = test system: LOS induced IL-6 production; assay: LOS induced IL-6 production by PBMC (ELISA); format: cell-based, human; settings: for IC50: 24 h LOS stimulation, mean ± SD of at least 3 donors, 0.15-40 μM tested
# Protocol: (§3) The medium used throughout this Example was Iscoves modified Dulbecco's medium (IMDM, Bio Whittaker, Verviers, Belgium) containing 100 U/ml penicillin, […] streptomycin (Gibco, Merelbeke, Belgium), 50 μM 2-mercaptoethanol (Sigma-Aldrich, Steinheim, Germany), 5% heat-inactivated fetal calf serum (FCS, Bodinco, Alkmaar, the Netherlands) and 20 mg/ml human transferrin (Sigma-Aldrich). All used compounds are endotoxin free.
# as §1
# (§4) Cytokine production of T lymphocytes was measured 3 days after anti CD3/anti CD28 stimulation. 1 day after LOS stimulation of the monocytes, cytokine production was measured. At the indicated times, supernatant was harvested and stored at −20° C. until used. IL-1b, IL-6, IL-8, IL-10, IL-12, IL-13, TNFa and IFNg were detected with ELISA kits (PeliKine-compact, CLB, Amsterdam, The Netherlands) according to the protocol. Summarized briefly, mAbs were coated on flat bottom microtitre plates (Nunc, Maxisorb) overnight in 100 μl 0.1 M sodiumbicarbonate at pH 9.6. All incubations were performed in 100 μl at room temperature. Plates were washed 5 times with PBS+0.02% Tween (Mallinckrodt Baker, Deventer, The Netherlands). Samples were incubated together with a biotinylated mAb for 2 hours in High Performance ELISA-buffer (CLB). Plates were washed 5 times with PBS+0.02% Tween and incubated with streptavidin-labeled poly-horseradish peroxidase (CLB) 1:1000 diluted in PBS+2% skimmed milk for 30 minutes. After 5 wash steps the plates were developed with TMB-substrate containing 0.003% H2O2, […] 3,5,3′,5′-tetramethylbenzidine (Merck, Darmstadt, Germany) in 0.11 M sodium acetate, pH 5.5. The reaction was stopped with an equal volume of 2 M H2SO4. The plates were measured in an ELISA-reader at 450 nm, using 540 nm for background measurements. GM-CSF was measured using a protocol similar to that used for the other cytokines. The GM-CSF Abs were a kind gift from Dr. G. Trinchieri (the Wistar Institute, Philadelphia, Pa., USA) In this assay the coating Ab was anti-GM-CSF 9.1 (used at 2 μg/ml), the biotinylated Ab was anti-GM-CSF 16.3 (0.1 μg/ml). rGM-CSF (Sandoz, Basel, Switzerland) and HGF 22.10 (CLB) were used for preparation of a standard curve.
# (§5) IC50 values (the concentration of the compound needed to inhibit 50% of the maximum response) were determined by using 2-fold titration curves of the compound. The minimum concentration tested was 0.15 μM and the maximum concentration was 40 μM. Results represent the mean ±standard deviation of at least 3 donors. IL-6 in the culture supernatant was determined after 24 h of LOS stimulation of the PBMC by ELISA. GM-CSF in the culture supernatant was determined after 3 days of anti-CD3/anti-CD28 stimulation of the PBMC by ELISA
# [3] = Human volunteers given 4-OH-OPB orally before LPS infusion: tolerability; format: in vivo; settings: 200 mg orally, 2 hours before LPS 4 ng/kg i.v.
# Protocol: Eight of the volunteers received 4-OH-OPB 200 mg orally as two tablets of 100 mg and eight were given placebo tablets. Placebo tablets were chemically identical with the exception of the presence of 4-OH-OPB. The study drug and placebo were administered 2 hours prior to infusion of […] coli lipopolysaccharide, lot G1, United States Pharmacopeial Convention, Rockville, Md.) was administered as a bolus intravenous injection at a dose of 4 ng/kg body weight. Blood was drawn directly prior to the administration of 4-OH-OPB, directly prior to injection of LPS and 0.5, 1, 1.5, 2, 3, 4, 5, 6, 8, 10 and 23 hours thereafter for plasma levels of 4-OH-OPB and/or metabolites. Blood was collected in heparinized tubes which were centrifuged at 3000 r.p.m. for 10 minutes at 4° C., after which 2 ml plasma was transferred in acid containing tubes. Blood for ex vivo production of cytokines in whole blood and mononuclear cell (MNC) cultures was taken directly prior to the administration of 4-OH-OPB and directly prior to the injection of LPS (t=-2 hrs and t=0 hrs). Heparinized whole blood or MNCs were incubated with medium, LOS or anti-CD3/CD28. […] Concentrations of TNF-α, IL-6, IL-8, IL-10 were determined in EDTA-anticoagulated plasma by Cytometric Bead Array (Human BD Cytometric Bead Array Kit, BD Biosciences Pharmingen, San Jose, Calif.).
# [4] = test system: Th1 and Th2 specific cytokine production; assay: Effect on lymphocyte specific cytokines (Th1 and Th2); format: cell-based, human
# Protocol: as §1, §2
# [5] = test system: anti-CD3/anti-CD28 induced GM-CSF production; assay: anti-CD3/anti-CD28 induced GM-CSF production by PBMC (ELISA); format: cell-based, human; settings: for IC50: 3 days anti-CD3/anti-CD28 stimulation, mean ± SD of at least 3 donors, 0.15-40 μM tested, read-out: IC50 aCD3/aCD28 stimulation (GM-CSF production); for concentration inhibiting GM-CSF production (total inhibition): concentration series up to 40 μM
# Protocol: as §3, with “(Sigma-Aldrich).” for “(Sigma-Aldrich). All used compounds are endotoxin free.”
# as §1, §4
# as §5, with “Results represent the mean ±standard deviation of at least 3 donors.” left out
# [6] = Stability of ring-opened product in aqueous solution; format: physicochemical
# Source text: The product of Example 4 (PHBPQ, N-phenyl-2-hydroxy-2 butyl-1,3-propanal quinoneimine) was examined for stability in aqueous solution, followed by analysis by ^1H NMR spectroscopy.
# [7] = LOS induced IL-6 production, PBMC
molecule,measurement,setting,value
"CCCCC1(O)C(=O)N(c2ccccc2)N(c2ccc(O)cc2)C1=O (stereo not shown) [4-OH-OPB, 4-Hydroxy-oxyphenbutazone]",inhibition of LOS-induced monokines compared with IL-6,"[1]; LOS-induced, monocytes",inhibited identically
same,inhibition of SAC induced monokine production,[1]; SAC (heat killed staphylococcus aureus cells) stimulus,also inhibited
same,IC50,"[2]; Homo sapiens, PBMC",0.6 ± 0.6 µM
same,cytokine inhibitory activity (IL-6 and GM-CSF production by PBMC in vitro),[2]; IL-6 and GM-CSF production by PBMC in vitro,best inhibitor
same,factor by which the IL-6 inhibiting concentration is lower than that for GM-CSF,[2]; [7],2
same,adverse events attributable to the compound,[3],No adverse events
same,complaints of epigastric pain,[3],no complaints of epigastric pain
same,inhibition of cytokine production induced by other stimuli,"[4]; PMA/ionomycin, PMA/anti-CD28 or anti-CD2/anti-CD28 antibodies",inhibited at similar concentration
same,effect on production of lymphocyte specific cytokines (Th1 and Th2),[4]; anti-CD3/anti-CD28 stimulation,identical to the inhibition found for GM-CSF
same,IC50,"[5]; Homo sapiens, 72 h",0.8 ± 0.5 µM
same,concentration inhibiting GM-CSF production (total inhibition),[5]; three days incubation,1.25 µM
"O=C1N(c2ccccc2)N(c2ccc(O)cc2)C(=O)C1(O)CCS(=O)(=O)c1ccccc1 (stereo not shown) [4-OH-OPS, 4-ethylsuphonphenyl-4-hydroxy-1-phenyl-2-hydroxyphenyl-3,5-pyrazoladinedione]",concentration needed to inhibit IL-6 production compared to 4-OH-OPB,[2]; [7],higher concentration
same,IC50,[2]; PBMC,13 ± 4 µM
same,IC50,[5],30 ± 10 µM
same,concentration inhibiting GM-CSF production (total inhibition),[5]; three days incubation,around 40 μM
"CCCCC1C(=O)N(c2ccccc2)N(c2ccc(O)cc2)C1=O (stereo not shown) [OPB, oxyphenbutazone]",IC50,"[2]; Homo sapiens, PBMC",13 ± 12 µM
same,concentration needed to inhibit IL-6 production compared to 4-OH-OPB,[2]; [7],higher concentration
same,IC50,"[5]; Homo sapiens, 72 h",25 ± 7 µM
same,concentration inhibiting GM-CSF production (total inhibition),[5]; three days incubation,around 40 μM
"CCCCC1C(=O)N(c2ccccc2)N(c2ccccc2)C1=O [PB, phenbutazone]",IC50,"[2]; Homo sapiens, PBMC",> 40 µM
same,IC50,"[5]; Homo sapiens, 72 h",30 ± 10 µM
same,shape of dose-response curve for GM-CSF inhibition,"[5]; three days incubation, up to 40 μM",shallow dose-response curve
"N-phenyl-2-hydroxy-2-butyl-1,3-propanal quinoneimine [PHBPQ]",re-conversion into 4-OH-OPB when the solution was acidified,[6]; acidified solution,not re-converted into 4-OH—OPB
same,half-life,"[6]; aqueous solution, pH 7.4",2 to 2.5 h
same,stability compared with 4-OH-OPB,[6]; pH 7.4,more stable
